Where a name gives a salt, the structure may show the parent alone. Read-outs that look alike come from different tables or passages of the source. Blank lines part the entries; values can stand above or below the compound they belong to.
How the values were obtained:
dopamine receptors = molecular target: T1, dopamine receptors (Rattus norvegicus, UniProt P61169); assay: 3H-spiroperidol binding test (rat striatal brain homogenates); details: 0.2 nM 3H-spiroperidol, 20 min, read-out: Binding IC50 (inhibition of 3H-spiroperidol binding to dopamine receptors)
T1 construct: rat striatal brain homogenates; from tissue; host or cells: rat striatum (brain homogenate)
T1 sequence (P61169 whole entry): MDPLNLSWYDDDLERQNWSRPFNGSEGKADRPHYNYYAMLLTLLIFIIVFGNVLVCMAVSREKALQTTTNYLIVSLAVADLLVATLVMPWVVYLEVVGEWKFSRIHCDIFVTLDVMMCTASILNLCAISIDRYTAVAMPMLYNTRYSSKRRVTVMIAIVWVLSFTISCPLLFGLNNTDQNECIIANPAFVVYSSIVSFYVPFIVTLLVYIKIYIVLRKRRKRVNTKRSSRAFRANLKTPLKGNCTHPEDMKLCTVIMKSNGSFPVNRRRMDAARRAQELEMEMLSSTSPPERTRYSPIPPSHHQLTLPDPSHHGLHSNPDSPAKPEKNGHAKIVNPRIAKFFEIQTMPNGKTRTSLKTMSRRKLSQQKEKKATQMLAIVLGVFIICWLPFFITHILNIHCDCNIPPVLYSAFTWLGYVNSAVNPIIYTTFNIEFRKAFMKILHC
Description: Dopamine receptor antagonism by compounds of formula I in vitro is determined by the ^3 H-spiroperidol binding assay. In this test, rat striatal brain homogenates were incubated for 20 minutes in the presence of 0.2 nanomolar ^3 H-spiroperidol and varying concentrations of test compounds. The incubations were terminated by rapid filtrations through Whatman GF/B filters, followed by 2×5 mL washes with ice-cold assay buffer (50 mM tribase-HCl pH 7.7 which contains fixed concentrations of 0.1% ascorbic acid, 120 mM NaCl, 5 mM KCl, 2 mM CaCl2, and 1 mM MgCl2).

[1] = test system: apomorphine-induced rearing; assay: Antagonism of apomorphine-induced rearing in mice; details: for ED50: Mus musculus; for Antagonism of Apomorphine Rearing % protected at 10 mg/kg: intravenous 10 mg/kg
[2] = test system: D-amphetamine hyperactivity (central nervous system dopamine receptors); assay: Antagonism of D-amphetamine hyperactivity in mice; details: Mus musculus, read-out: Antagonism of Amphetamine Hyperactivity ED50
apomorphine emesis = assay: Anti-apomorphine emesis in dogs; format: in vivo, dog (female Beagle); details: Canis lupus familiaris, po; orally, 1 hour before apomorphine HCl 0.1 mg/kg s.c.; 1 hour observation; read-out: anti-emetic ED50 (apomorphine emesis)
Description: Pure-bred female Beagle dogs (Fa. WIGA, Versuchstier-Zuchtanstalt, 8741 Sulzfeld, GFR) with an approximate body weight of 15 kg were used. All dogs were shown previously to vomit at least four times during the 60 minutes following injection of 0.1 mg/kg apomorphine .HCl s.c. into the neck. Each dog was used in 14 day intervals. Three drug sessions were followed by an apomorphine control session.
The compound of formula If was administered suspended in 5% acacia at different dose levels by oral gavage to at least 4 dogs per dose. One hour later 0.1 mg/kg apomorphine .HCl was injected s.c. and the dogs observed for a further hour for vomiting.

cisplatin-induced emesis = assay: Anti-cisplatin emesis in dogs; format: in vivo, dog (Beagle); details: for effectiveness against apomorphine and cisplatin emesis (in words): dogs
Description: The procedure was as follows:
In the evaluation 6 male and 6 female Beagle dogs, supplied by White Eagle Laboratories, Doylestown PA., were used. Three dogs were tested daily. Each dog received either saline-placebo, 30 ml i.v.; the compound of formula If, 10 mg/kg i.v.; or domperidone 10 mg/kg i.v. The compound of formula If was dissolved in warm sterile water for injection. Domperidone was solubilized in acetic acid and the pH was adjusted with 2N NaOH. Both drugs were diluted to an infusion volume of 30 mL with sterile water. The treatments were infused over a 30-minute (n=3) or a 60-minute (n=9) period. […] The cisplatin, 1 mg/ml dissolved in sterile water, was infused over a 10 minute period. Each treatment was given to 2 male and 2 female weight-matched dogs.
The dogs were fed Wayne dog food moistened in water, 20 grams/kg, one hour prior to treatment. During the observation period the onset, frequency and severity of vomiting episodes as well as any atypical behavioral activity was recorded.
Statistical evaluation of emetic activity was done using Student's-t test for unpaired data.

[3] = Side effect evaluation in dogs; format: in vivo, dog (beagle); details: oral 1 mg/kg, then one day later 10 mg/kg; observed six hours
Description: For side effect liability evaluation, pure breed beagle dogs from Marshall Inc., North Rose, N.Y., were used. Prior to dosing, the dogs were fasted for approximately 18 hrs. Dosing was orally by gelatin capsule. […] Compound of formula Ia was initially administered orally at a dose of 1 mg/kg and then one day later at an oral dose of 10 mg/kg. An experienced observer monitored these dogs for six hours, following dosing.

[4] = po, 2 h, read-out: Antagonism of Apomorphine rearing ED50
[5] = 10 mg/kg i.v., cisplatin 3 mg/kg i.v.

Structure (SMILES): Cc1[nH]c2c(c1C)C(=O)C(CN1CCC3(CC1)C(=O)NCN3c1ccccc1)CC2 (stereo not shown) [Compound Id, 8-[4,5,6,7-tetrahydro-(2,3-dimethyl-4-oxo-1H-indol-5-yl)methyl]-1-phenyl-1,3,8-triazaspiro[4.5]decan-4-one]
IC50 (dopamine receptors): 78 pM
ED50 ([1]; iv, 4 h, read-out: Antagonism of Apomorphine Rearing ED50): 5.1 mg/kg
ED50 [1, 4]: 12 mg/kg
ED50 ([2]; iv, 4 h): > 20 mg/kg
ED50 ([2]; po, 1 h): 147 mg/kg

Structure (SMILES): O=C1c2c([nH]c3c2CCC3)CCC1CN1CCC2(CC1)C(=O)NCN2c1ccccc1 (stereo not shown) [Compound If, 1,2,3,5,6,7-hexahydro-7-[(4-oxo-1-phenyl-1,3,8-triazaspiro[4.5]decan-8-yl)methyl]-4H-cyclopent[b]indol-8(8H)-one]
IC50 (dopamine receptors): 350 pM
ED50 (apomorphine emesis): 0.75 mg/kg
Vomiting episodes Mean (± S.E.) 6 Hrs (cisplatin-induced emesis; [5]): 6.0 ± 1.8
Vomiting episodes Mean (± S.E.) 1 hr. (cisplatin-induced emesis; [5]): 1.0 ± 0.4
effectiveness against apomorphine and cisplatin emesis (in words) (cisplatin-induced emesis): effective against both apomorphine and cisplatin emesis in dogs
ED50 [1, 4]: 12 mg/kg
ED50 ([2]; po, 1 h): > 100 mg/kg

Structure (SMILES): O=C(CCCN1CCC(O)(c2ccc(Cl)cc2)CC1)c1ccc(F)cc1 [haloperidol, reference compound]
ED50 [1, 4]: 0.18 mg/kg
ED50 ([2]; po, 1 h): 0.23 mg/kg

IC50 (dopamine receptors): 82 pM
Structure (SMILES): CCc1c(C)[nH]c2c1C(=O)C(CN1CCC3(CC1)C(=O)NCN3C1CCCCC1)CC2 (stereo not shown) [Compound Ie]
ED50 [1, 4]: 98 mg/kg
Antagonism of Apomorphine Rearing % protected at 10 mg/kg ([1]; 4 hr after administration): 62%
Antagonism of Apomorphine Rearing % protected at 10 mg/kg ([1]; 7 hr after administration): 79%
ED50 ([2]; po, 1 h): 235 mg/kg

Structure (SMILES): CCc1c(C)[nH]c2c1C(=O)C(CN1CCC3(CC1)C(=O)NCN3c1ccccc1)CC2 (stereo not shown) [Compound Ia, 8-[(3-ethyl-4,5,6,7-tetrahydro-2-methyl-4-oxo-1H-indol-5-yl)methyl]-1-phenyl-1,3,8-triazaspiro[4.5]-decan-4-one]
IC50 (dopamine receptors): 95 pM
grossly observable abnormal signs (behavior, motor coordination) [3]: Neither dose level produced any grossly observable alteration in behavior or motor coordination nor were any other abnormal signs seen
ED50 ([1]; iv, 2 h, read-out: Antagonism of Apomorphine Rearing ED50): 7 mg/kg
ED50 ([1]; iv, 7 h, read-out: Antagonism of Apomorphine Rearing ED50): 2.3 mg/kg
ED50 [1, 4]: > 100 mg/kg
ED50 ([2]; iv, 2 h): 15.9 mg/kg
ED50 ([2]; iv, 7 h): 8.6 mg/kg
ED50 ([2]; po, 1 h): > 100 mg/kg

Structure (SMILES): CN(C)CCCN1c2ccccc2Sc2ccc(Cl)cc21 [chloropromazine HCl, reference compound]
ED50 [1, 4]: 4.9 mg/kg
ED50 ([2]; po, 1 h): 2.1 mg/kg

IC50 (dopamine receptors): 520 pM
Structure (SMILES): O=C1c2c([nH]c3c2CCC3)CCC1CN1CCC2(CC1)C(=O)NCN2C1CCCCC1 (stereo not shown) [Compound Ic, 8-[(1,2,3,4,5,6,7,8-octahydro-8-oxocyclopent[b]indol-7-yl)methyl]-1-cyclohexyl-1,3,8-triazaspiro[4.5]-decan-4-one]
ED50 [1, 4]: > 100 mg/kg
Antagonism of Apomorphine Rearing % protected at 10 mg/kg ([1]; 4 hr after administration): 40%
Antagonism of Apomorphine Rearing % protected at 10 mg/kg ([1]; 7 hr after administration): 40%
ED50 ([2]; po, 1 h): > 100 mg/kg

Structure (SMILES): O=c1[nH]c2ccccc2n1CCCN1CCC(n2c(=O)[nH]c3cc(Cl)ccc32)CC1 [domperidone]
ED50 (apomorphine emesis): 0.2 mg/kg
emesis versus controls (in words) (cisplatin-induced emesis; [5]): did not differ significantly from controls
Vomiting episodes Mean (± S.E.) 6 Hrs (cisplatin-induced emesis; [5]): 12.5 ± 2.3
Vomiting episodes Mean (± S.E.) 1 hr. (cisplatin-induced emesis; [5]): 2.1 ± 0.7
effectiveness against apomorphine and cisplatin emesis (in words) (cisplatin-induced emesis): only effective against apomorphine emesis in dogs
ED50 [1, 4]: 23 mg/kg
ED50 ([2]; po, 1 h): 194 mg/kg

IC50 (dopamine receptors): 940 pM
Structure (SMILES): CC1NC(=O)C2(CCN(CC3CCc4[nH]c5c(c4C3=O)CCC5)CC2)N1c1ccccc1 (stereo not shown) [Compound Ib, 8-[(1,2,3,4,5,6,7,8-octahydro-8-oxocyclopent[b]indol-7-yl)methyl]-2-methyl-1-phenyl-1,3,8-triazaspiro[4.5]-decan-4-one]
ED50 [1, 4]: > 100 mg/kg
Antagonism of Apomorphine Rearing % protected at 10 mg/kg ([1]; 4 hr after administration): 36%
Antagonism of Apomorphine Rearing % protected at 10 mg/kg ([1]; 7 hr after administration): 36%
ED50 ([2]; po, 1 h): > 100 mg/kg
